{
  "source": "patent US20070154449A1",
  "about": "“TIGHT JUNCTION MODULATING PEPTIDES FOR ENHANCED MUCOSAL DELIVERY OF THERAPEUTIC COMPOUNDS” (Nastech Pharmaceutical Company Inc., priority 2005, published 2007)",
  "assay": "Intranasal PYY pharmacokinetics in rabbits with PN159 or small molecule enhancers (Example 5)",
  "assay_type": "in vivo, New Zealand White rabbits",
  "conditions": "for PYY plasma concentration: mean of 4 rabbits; for AUCINF (Mean) / AUClast (Mean) / Cmax (Mean) / Tmax (Mean) / t½ (Mean): PYY in plasma, rabbit; for Relative AUC last / Relative Cmax: PYY, rabbit intranasal",
  "experimental": "Twenty male New Zealand White rabbits age 3-6 months and weighing 2.1-3.0 kg were randomly assigned into one of 5 treatment groups with four animals per group. Test animals were dosed at 15 μl/kg and intranasally via pipette. Table 6 below indicates the composition of five different dose groups.\nFor dosing group 1 (see Table 6) a clinical formulation of PYY including small molecule permeation enhancers was used. The small molecule enhancers in these studies included methyl-β-cyclodextrin, phosphatidylcholine didecanoyl (DDPC), and/or EDTA. Dosing group 2 received PYY dissolved in phosphate buffered saline (PBS). For dosing groups 3-5, various concentrations of PN159 were added to dosing group 2, so that each of dosing groups 3 to 5 consisted of PYY, PN159, and PBS.\nSerial blood samples (about 2 ml each) were collected by direct venipuncture from a marginal ear vein into blood collection tubes containing EDTA as an anticoagulant. Blood samples were collected at 0, 2.5, 5, 10, 15, 30, 45, 60, and 120 minutes post-dosing. After collection of the blood, the tubes were gently rocked several times for anti-coagulation, and then 50 μl aprotinin solution was added. The blood was centrifuged at approximately 1,600×g for 15 minutes at approximately 4° C., and plasma samples were dispensed into duplicate aliquots and stored frozen at approximately −70° C.",
  "key": {"[1]": {"conditions": "Group 3: PYY 205 μg/kg intranasal with 25 μM PN159"}, "[2]": {"conditions": "Group 4: PYY 205 μg/kg intranasal with 50 μM PN159"}, "[3]": {"conditions": "Group 5: PYY 205 μg/kg intranasal with 100 μM PN159"}, "[4]": {"conditions": "Group 3 (PN159, 25 μm) compared with Group 2 (no enhancer)"}, "[5]": {"conditions": "Group 4 (PN159, 50 μm) compared with Group 2 (no enhancer)"}, "[6]": {"conditions": "Group 5 (PN159, 100 μm) compared with Group 2 (no enhancer)"}},
  "data": [
    {"smiles": "CC(C)C[C@H](NC(=O)[C@H](C)NC(=O)[C@H](CCCCN)NC(=O)[C@H](CC(C)C)NC(=O)[C@H](C)NC(=O)[C@H](CC(C)C)NC(=O)[C@H](CCCCN)NC(=O)[C@H](CC(C)C)NC(=O)[C@H](C)NC(=O)[C@H](CC(C)C)NC(=O)[C@@H](N)CCCCN)C(=O)N[C@@H](CCCCN)C(=O)N[C@@H](C)C(=O)N[C@@H](C)C(=O)N[C@@H](CC(C)C)C(=O)N[C@@H](CCCCN)C(=O)N[C@@H](CC(C)C)C(=O)N[C@@H](C)C(N)=O", "note": "[PN159]", "values": [
      {"measurement": "PYY plasma concentration", "setting": "Group 3: PYY 205 μg/kg intranasal with 25 μM PN159, 0 min", "value": 228.675},
      {"measurement": "PYY plasma concentration", "setting": "Group 3: PYY 205 μg/kg intranasal with 25 μM PN159, 2.5 min", "value": 526.375},
      {"measurement": "PYY plasma concentration", "setting": "Group 3: PYY 205 μg/kg intranasal with 25 μM PN159, 5 min", "value": 1430.15},
      {"measurement": "PYY plasma concentration", "setting": "Group 3: PYY 205 μg/kg intranasal with 25 μM PN159, 10 min", "value": 6521.7},
      {"measurement": "PYY plasma concentration", "setting": "Group 3: PYY 205 μg/kg intranasal with 25 μM PN159, 15 min", "value": 12563.075},
      {"measurement": "PYY plasma concentration", "setting": "Group 3: PYY 205 μg/kg intranasal with 25 μM PN159, 30 min", "value": 15222.6},
      {"measurement": "PYY plasma concentration", "setting": "Group 3: PYY 205 μg/kg intranasal with 25 μM PN159, 45 min", "value": 9081.125},
      {"measurement": "PYY plasma concentration", "setting": "Group 3: PYY 205 μg/kg intranasal with 25 μM PN159, 60 min", "value": 4843.15},
      {"measurement": "PYY plasma concentration", "setting": "Group 3: PYY 205 μg/kg intranasal with 25 μM PN159, 120 min", "value": 1224.2},
      {"measurement": "PYY plasma concentration", "setting": "Group 4: PYY 205 μg/kg intranasal with 50 μM PN159, 0 min", "value": 424.4},
      {"measurement": "PYY plasma concentration", "setting": "Group 4: PYY 205 μg/kg intranasal with 50 μM PN159, 2.5 min", "value": 749.975},
      {"measurement": "PYY plasma concentration", "setting": "Group 4: PYY 205 μg/kg intranasal with 50 μM PN159, 5 min", "value": 1293.4},
      {"measurement": "PYY plasma concentration", "setting": "Group 4: PYY 205 μg/kg intranasal with 50 μM PN159, 10 min", "value": 12517.2},
      {"measurement": "PYY plasma concentration", "setting": "Group 4: PYY 205 μg/kg intranasal with 50 μM PN159, 15 min", "value": 34455.3},
      {"measurement": "PYY plasma concentration", "setting": "Group 4: PYY 205 μg/kg intranasal with 50 μM PN159, 30 min", "value": 35294.375},
      {"measurement": "PYY plasma concentration", "setting": "Group 4: PYY 205 μg/kg intranasal with 50 μM PN159, 45 min", "value": 21582.225},
      {"measurement": "PYY plasma concentration", "setting": "Group 4: PYY 205 μg/kg intranasal with 50 μM PN159, 60 min", "value": 9461.925},
      {"measurement": "PYY plasma concentration", "setting": "Group 4: PYY 205 μg/kg intranasal with 50 μM PN159, 120 min", "value": 2337.775},
      {"measurement": "PYY plasma concentration", "setting": "Group 5: PYY 205 μg/kg intranasal with 100 μM PN159, 0 min", "value": 294.225},
      {"measurement": "PYY plasma concentration", "setting": "Group 5: PYY 205 μg/kg intranasal with 100 μM PN159, 2.5 min", "value": 1748.225},
      {"measurement": "PYY plasma concentration", "setting": "Group 5: PYY 205 μg/kg intranasal with 100 μM PN159, 5 min", "value": 3088.2},
      {"measurement": "PYY plasma concentration", "setting": "Group 5: PYY 205 μg/kg intranasal with 100 μM PN159, 10 min", "value": 14486.6},
      {"measurement": "PYY plasma concentration", "setting": "Group 5: PYY 205 μg/kg intranasal with 100 μM PN159, 15 min", "value": 20882.725},
      {"measurement": "PYY plasma concentration", "setting": "Group 5: PYY 205 μg/kg intranasal with 100 μM PN159, 30 min", "value": 25470.475},
      {"measurement": "PYY plasma concentration", "setting": "Group 5: PYY 205 μg/kg intranasal with 100 μM PN159, 45 min", "value": 16499.55},
      {"measurement": "PYY plasma concentration", "setting": "Group 5: PYY 205 μg/kg intranasal with 100 μM PN159, 60 min", "value": 10676.625},
      {"measurement": "PYY plasma concentration", "setting": "Group 5: PYY 205 μg/kg intranasal with 100 μM PN159, 120 min", "value": 1891.275},
      {"measurement": "AUCINF (Mean)", "setting": "[1]", "value": 796354.7, "unit": "pg·min/mL"},
      {"measurement": "AUClast (Mean)", "setting": "[1]", "value": 748104.1, "unit": "pg·min/mL"},
      {"measurement": "Cmax (Mean)", "setting": "[1]", "value": 15.53395, "unit": "ng/mL"},
      {"measurement": "Tmax (Mean)", "setting": "[1]", "value": 22.5, "unit": "min"},
      {"measurement": "t½ (Mean)", "setting": "[1]", "value": 24.8467, "unit": "min"},
      {"measurement": "AUCINF (Mean)", "setting": "[2]", "value": 1787348, "unit": "pg·min/mL"},
      {"measurement": "AUClast (Mean)", "setting": "[2]", "value": 1692499, "unit": "pg·min/mL"},
      {"measurement": "Cmax (Mean)", "setting": "[2]", "value": 40.99553, "unit": "ng/mL"},
      {"measurement": "Tmax (Mean)", "setting": "[2]", "value": 26.25, "unit": "min"},
      {"measurement": "t½ (Mean)", "setting": "[2]", "value": 25.5355, "unit": "min"},
      {"measurement": "AUCINF (Mean)", "setting": "[3]", "value": 1518949, "unit": "pg·min/mL"},
      {"measurement": "AUClast (Mean)", "setting": "[3]", "value": 1384241, "unit": "pg·min/mL"},
      {"measurement": "Cmax (Mean)", "setting": "[3]", "value": 27.9744, "unit": "ng/mL"},
      {"measurement": "Tmax (Mean)", "setting": "[3]", "value": 33.75, "unit": "min"},
      {"measurement": "t½ (Mean)", "setting": "[3]", "value": 20.4628, "unit": "min"},
      {"measurement": "Relative AUC last", "setting": "[4]", "value": 21, "unit": "×"},
      {"measurement": "Relative Cmax", "setting": "[4]", "value": 30, "unit": "×"},
      {"measurement": "Relative AUC last", "setting": "[5]", "value": 46, "unit": "×"},
      {"measurement": "Relative Cmax", "setting": "[5]", "value": 79, "unit": "×"},
      {"measurement": "Relative AUC last", "setting": "[6]", "value": 38, "unit": "×"},
      {"measurement": "Relative Cmax", "setting": "[6]", "value": 54, "unit": "×"}
    ]}
  ]
}
